Source: patent US20080008724A1 (Statens Serum Institute, priority 2006, published 2008)

Test system: IFN-γ producing T cells
Assay: IFN-γ secretion (ELISA) of blood cells from mice vaccinated with TB10.4 antigens, stimulated with TB10.4 peptides
Format: in vivo
Conditions: for specific T-cell response (IFN-γ secretion, ELISA) after vaccination with the individual peptide: mice vaccinated three times with individual TB10.4 peptide in DDA/TDB, cells stimulated with 0.5 μg/ml of the same peptide

Q: For “TB10.4-P1: amino acids 1 to 18 of SEQ ID NO: 2 (MSQIMYNYPAMLGHAGDM; listed as Mycobacterium tuberculosis)”, which “specific T-cell response (IFN-γ secretion, ELISA) after vaccination with the individual peptide” value is on record?
A: induced a specific T-cell response

Q: “TB10.4-P3: amino acids 21 to 38 of SEQ ID NO: 2 (YAGTLQSLGAEIAVEQAA; listed as Mycobacterium tuberculosis)” was tested. Which “specific T-cell response (IFN-γ secretion, ELISA) after vaccination with the individual peptide” value did it give?
A: induced a specific T-cell response

B1: TB10.4: protein expressed by M. tuberculosis, recombinant (SEQ ID NO: 2) (protein, listed as Mycobacterium tuberculosis)
chain: MSQIMYNYPAMLGHAGDMAGYAGTLQSLGAEIAVEQAALQSAWQGDTGITYQAWQAQWNQAMEDLVRAYHAMSSTHEANTMAMMARDTAEAAKWGGX
modifications: X not resolved here
Q: For B1, which “T-cell recognition of TB10.4 peptides P1-P9 (IFN-γ secretion, ELISA) after vaccination” value (mice vaccinated 3 times at 2-week intervals in DDA/TDB, blood cells two weeks after final vaccination, stimulated with 0.5 μg/ml of individual peptides) is on record?
A: mainly induced P3 specific T cells
